Drawing on patent US11279683B2, “Thiophene derivatives as antiviral agents” (ENYO PHARMA, priority 2016, dated 2022), this text covers IC50 for 31 compounds.

In the first assay the test system is H1N1 (influenza A/New Caledonia/20/99). As to the kind of experiment: microbe, parasite or virus in culture.
Settings: not given
The class given is cell-based.
For the compound “2-[[6-tert-butoxycarbonyl-3-[(4-chlorophenyl)carbamoyl]-5,7-dihydro-4H-thieno[2,3-c]pyridin-2-yl]carbamoyl]cyclohexanecarboxylic acid [Compound 91]”, 10 µM corresponded to half-maximal inhibition (IC50).

`O=C(Nc1ccc(Cl)cc1)c1c(NC(=O)C2CCC(C(=O)O)CC2)sc2c1CCC2` (single isomer, unassigned) [Compound 98, 4-[[3-[(4-chlorophenyl)carbamoyl]-5,6-dihydro-4H-cyclopenta[b]thiophen-2-yl]carbamoyl]cyclohexanecarboxylic acid]: half-maximal inhibition (IC50) was put at 15.9 µM.

The assay is the same for the next values; noted with them: Influenza A virus, H1N1, A549, 48 h.
Regarding `O=C(Nc1ccc(Cl)cc1)c1c(NC(=O)C2CCC(C(=O)O)CC2)sc2c1CCC2` (single isomer, unassigned) [Compound 97, 4-[[3-[(4-chlorophenyl)carbamoyl]-5,6-dihydro-4H-cyclopenta[b]thiophen-2-yl]carbamoyl]cyclohexanecarboxylic acid], it took 14.7 µM to reach half-maximal inhibition (IC50).

In the case of `CC(C)(C)C1CCc2c(sc(NC(=O)[C@H]3CCCC[C@H]3C(=O)O)c2C(=O)Nc2ccc(Cl)cc2)C1` (stereo in doubt) [Compound 79, 2-[[6-tert-butyl-3-[(4-chlorophenyl)carbamoyl]-4,5,6,7-tetrahydrobenzothiophen-2-yl]carbamoyl]cyclohexanecarboxylic acid], the IC50 was determined as 1.85 µM.

`CONC(=O)[C@@H]1CCCC[C@@H]1C(=O)Nc1sc2c(c1C(=O)Nc1ccc(Cl)cc1)CCC2` (stereo in doubt) [Compound 88, N1-[3-[(4-chlorophenyl)carbamoyl]-5,6-dihydro-4H-cyclopenta[b]-thiophen-2-yl]-N2-methoxy-cyclohexane-1,2-dicarboxamide] displayed an IC50 of 8.4 µM.

Turning to `O=C(Nc1ccc(Cl)cc1)c1c(NC(=O)[C@H]2CCCC[C@H]2C(=O)NO)sc2c1CCC2` (stereo in doubt) [Compound 90, N-(4-chlorophenyl)-2-[[2-(hydroxycarbamoyl)cyclohexanecarbonyl]amino]-5,6-dihydro-4H-cyclopenta[b]thiophene-3-carboxamide], the IC50 is 9 µM.

For the compound `Cc1ccc(NC(=O)c2c(NC(=O)C3CCCCC3C(=O)O)sc3c2CCC3)cc1C` (stereo not shown) [Compound 1, 2-[[3-[(3,4-Dimethylphenyl)carbamoyl]-5,6-dihydro-4H-cyclopenta[b]thiophen-2-yl]carbamoyl]cyclohexanecarboxylic acid], 7.78 µM corresponded to half-maximal inhibition (IC50).

With `O=C(Nc1ccc(Cl)nc1)c1c(NC(=O)C2CCCCC2C(=O)O)sc2c1CCC2` (stereo not shown) [Compound 2, 2-[[3-[(6-Chloro-3-pyridyl)carbamoyl]-5,6-dihydro-4H-cyclopenta[b]thiophen-2-yl]carbamoyl]cyclohexanecarboxylic acid], 18 µM corresponded to half-maximal inhibition (IC50). Against the preceding compound, the IC50 is about 2.3-fold higher.

The compound `O=C(Nc1ccc2c(c1)OCO2)c1c(NC(=O)C2CCCCC2C(=O)O)sc2c1CCC2` (stereo not shown) [Compound 3, 2-[[3-(1,3-Benzodioxol-5-ylcarbamoyl)-5,6-dihydro-4H-cyclopenta[b]thiophen-2-yl]carbamoyl]cyclohexanecarboxylic acid] displayed a concentration for half-maximal inhibition (IC50) of 10.3 µM.

`O=C(Nc1ccc(F)cc1)c1c(NC(=O)C2CCCCC2C(=O)O)sc2c1CCC2` (stereo not shown) [Compound 4, 2-[[3-[(4-Fluorophenyl)carbamoyl]-5,6-dihydro-4H-cyclopenta[b]thiophen-2-yl]carbamoyl]cyclohexanecarboxylic acid] gave an IC50 of 15 µM.

Regarding `O=C(NCc1ccc(Cl)cc1)c1c(NC(=O)C2CCCCC2C(=O)O)sc2c1CCC2` (stereo not shown) [Compound 5, 2-[[3-[(4-Chlorophenyl)methylcarbamoyl]-5,6-dihydro-4H-cyclopenta[b]thiophen-2-yl]carbamoyl]cyclohexanecarboxylic acid], the IC50 was 10.7 µM. The IC50 values of the last two compounds are within 1.5-fold of each other.

`O=C(Nc1ccc(Cl)c(C(F)(F)F)c1)c1c(NC(=O)C2CCCCC2C(=O)O)sc2c1CCC2` (stereo not shown) [Compound 6, 2-[[3-[[4-Chloro-3-(trifluoromethyl)phenyl]carbamoyl]-5,6-dihydro-4H-cyclopenta[b]thiophen-2-yl]carbamoyl]cyclohexanecarboxylic acid] returned an IC50 of 4.68 µM.

`Cc1cc(Cl)ccc1NC(=O)c1c(NC(=O)C2CCCCC2C(=O)O)sc2c1CCC2` (stereo not shown) [Compound 7, 2-[[3-[(4-Chloro-2-methyl-phenyl)carbamoyl]-5,6-dihydro-4H-cyclopenta[b]thiophen-2-yl]carbamoyl]cyclohexanecarboxylic acid]: it took 10.1 µM to reach half-maximal inhibition (IC50).

For the compound `CO[C@H]1CC[C@H](NC(=O)c2c(NC(=O)C3CCCCC3C(=O)O)sc3c2CCC3)CC1` (stereo partly drawn) [Compound 8, 2-[[3-[(Trans-4-methoxycyclohexyl)carbamoyl]-5,6-dihydro-4H-cyclopenta[b]thiophen-2-yl]carbamoyl]cyclohexanecarboxylic acid], the midpoint of inhibition, the IC50, lay at 27.4 µM.

Regarding `O=C(Nc1ccc(CCO)cc1)c1c(NC(=O)C2CCCCC2C(=O)O)sc2c1CCC2` (stereo not shown) [Compound 9, 2-[[3-[[4-(2-Hydroxyethyl)phenyl]carbamoyl]-5,6-dihydro-4H-cyclopenta[b]thiophen-2-yl]carbamoyl]cyclohexanecarboxylic acid], the IC50 was found to be 21.1 µM.

`O=C(Nc1ccc(-c2ccccc2)cc1)c1c(NC(=O)C2CCCCC2C(=O)O)sc2c1CCC2` (stereo not shown) [Compound 10, 2-[[3-[(4-Phenylphenyl)carbamoyl]-5,6-dihydro-4H-cyclopenta[b]thiophen-2-yl]carbamoyl]cyclohexanecarboxylic acid] yielded an IC50 of 2.38 µM.

On to `O=C(NCc1cccc(Cl)c1)c1c(NC(=O)C2CCCCC2C(=O)O)sc2c1CCC2` (stereo not shown) [Compound 11, 2-[[3-[(3-Chlorophenyl)methylcarbamoyl]-5,6-dihydro-4H-cyclopenta[b]thiophen-2-yl]carbamoyl]cyclohexanecarboxylic acid], for which the midpoint of inhibition, the IC50, lay at 8.63 µM.

`CC(=O)c1cccc(NC(=O)c2c(NC(=O)C3CCCCC3C(=O)O)sc3c2CCC3)c1` (stereo not shown) [Compound 12, 2-[[3-[(3-Acetylphenyl)carbamoyl]-5,6-dihydro-4H-cyclopenta[b]thiophen-2-yl]carbamoyl]cyclohexanecarboxylic acid] showed a concentration for half-maximal inhibition (IC50) of 21.2 µM.

`Cc1cc(NC(=O)c2c(NC(=O)C3CCCCC3C(=O)O)sc3c2CCC3)ccc1Cl` (stereo not shown) [Compound 13, 2-[[3-[(4-Chloro-3-methyl-phenyl)carbamoyl]-5,6-dihydro-4H-cyclopenta[b]thiophen-2-yl]carbamoyl]cyclohexanecarboxylic acid]: the IC50 came out at 4.68 µM.

In turn, `Cc1ccc(NC(=O)c2c(NC(=O)C3CCCCC3C(=O)O)sc3c2CCC3)cc1Cl` (stereo not shown) [Compound 14, 2-[[3-[(3-chloro-4-methyl-phenyl)carbamoyl]-5,6-dihydro-4H-cyclopenta[b]thiophen-2-yl]carbamoyl]cyclohexanecarboxylic acid] yielded an IC50 of 4.78 µM.

With `O=C(Nc1ccc(N2CCOCC2)cc1)c1c(NC(=O)C2CCCCC2C(=O)O)sc2c1CCC2` (stereo not shown) [Compound 15, 2-[[3-[(4-Morpholinophenyl)carbamoyl]-5,6-dihydro-4H-cyclopenta[b]thiophen-2-yl]carbamoyl]cyclohexanecarboxylic acid], half-maximal inhibition (IC50) was put at 11.2 µM.

`O=C(Nc1ccc(F)c(F)c1)c1c(NC(=O)C2CCCCC2C(=O)O)sc2c1CCC2` (stereo not shown) [Compound 16, 2-[[3-[(3,4-Difluorophenyl)carbamoyl]-5,6-dihydro-4H-cyclopenta[b]thiophen-2-yl]carbamoyl]cyclohexanecarboxylic acid] returned an IC50 of 10.4 µM.

`O=C(Nc1cccc(Cl)c1)c1c(NC(=O)C2CCCCC2C(=O)O)sc2c1CCC2` (stereo not shown) [Compound 17, 2-[[3-[(3-Chlorophenyl)carbamoyl]-5,6-dihydro-4H-cyclopenta[b]thiophen-2-yl]carbamoyl]cyclohexanecarboxylic acid] gave an IC50 of 4.88 µM.

`O=C(NC1CCC(F)(F)CC1)c1c(NC(=O)C2CCCCC2C(=O)O)sc2c1CCC2` (stereo not shown) [Compound 18, 2-[[3-[(4,4-Difluorocyclohexyl)carbamoyl]-5,6-dihydro-4H-cyclopenta[b]thiophen-2-yl]carbamoyl]cyclohexanecarboxylic acid]: the IC50 turned out to be 33 µM. This IC50 lies about 6.8-fold higher than the previous one.

In turn, `O=C(Nc1ccc(CO)cc1)c1c(NC(=O)C2CCCCC2C(=O)O)sc2c1CCC2` (stereo not shown) [Compound 19, 2-[[3-[[4-(Hydroxymethyl)phenyl]carbamoyl]-5,6-dihydro-4H-cyclopenta[b]thiophen-2-yl]carbamoyl]cyclohexanecarboxylic acid] registered an IC50 of 30.8 µM. This IC50 and that of the compound before are within 1.5-fold of each other.

On to `O=C(Nc1ccc(OC(F)(F)F)cc1)c1c(NC(=O)C2CCCCC2C(=O)O)sc2c1CCC2` (stereo not shown) [Compound 20, 2-[[3-[[4-(Trifluoromethoxy)phenyl]carbamoyl]-5,6-dihydro-4H-cyclopenta[b]thiophen-2-yl]carbamoyl]cyclohexanecarboxylic acid], for which inhibition was half-maximal at 6.48 µM (IC50). This IC50 lies about 4.8-fold lower than the previous one.

On to `CC(C)(C)c1ccc(NC(=O)c2c(NC(=O)C3CCCCC3C(=O)O)sc3c2CCC3)cc1` (stereo not shown) [Compound 21, 2-[[3-[(4-tert-Butylphenyl)carbamoyl]-5,6-dihydro-4H-cyclopenta[b]thiophen-2-yl]carbamoyl]cyclohexanecarboxylic acid], for which the half-maximal inhibitory concentration (IC50) worked out at 4.68 µM.

The compound `CCCCCNC(=O)c1c(NC(=O)C2CCCCC2C(=O)O)sc2c1CCC2` (stereo not shown) [Compound 22, 2-[[3-(pentylcarbamoyl)-5,6-dihydro-4H-cyclopenta[b]thiophen-2-yl]carbamoyl]cyclohexanecarboxylic acid] yielded an IC50 of 20.3 µM.

As to `O=C(NC1CCc2ccccc21)c1c(NC(=O)C2CCCCC2C(=O)O)sc2c1CCC2` (stereo not shown) [Compound 23, 2-[[3-(Indan-1-ylcarbamoyl)-5,6-dihydro-4H-cyclopenta[b]thiophen-2-yl]carbamoyl]cyclohexanecarboxylic acid], the IC50 turned out to be 6.28 µM.

The compound `O=C(NCC1CCCCC1)c1c(NC(=O)C2CCCCC2C(=O)O)sc2c1CCC2` (stereo not shown) [Compound 24, 2-[[3-(Cyclohexylmethylcarbamoyl)-5,6-dihydro-4H-cyclopenta[b]thiophen-2-yl]carbamoyl]cyclohexanecarboxylic acid] yielded an IC50 of 12.3 µM. This IC50 is about 2-fold higher than that of the compound before.

Regarding `CC(C)c1ccc(NC(=O)c2c(NC(=O)C3CCCCC3C(=O)O)sc3c2CCC3)cc1` (stereo not shown) [Compound 25, 2-[[3-[(4-Isopropylphenyl)carbamoyl]-5,6-dihydro-4H-cyclopenta[b]thiophen-2-yl]carbamoyl]cyclohexanecarboxylic acid], the IC50 came to 4.68 µM.

The term IC50 denotes the concentration that gives 50% inhibition. High values mean weaker potency in that assay, low ones greater potency in that assay.
